Assay results reported in patent EP0427427A2, “Use of arylalkylamides in the treatment of neurodegenerative diseases” (FISONS CORPORATION, priority 1989, dated 1991).
Like-named read-outs stand apart in the source and are kept apart here.

What was measured:
Rats [1] = test: 4-vessel occlusion model of stroke, viability of CA1 neurons in the hippocampus; assay type: in vivo; details: ip doses of 20mg/kg twice daily for one week, first injection 30 minutes after reflow, 30 minutes 4-vessel occlusion, brains at 8 days
Dogs [2] = test: Global ischemia (clamping the ascending aorta), protection of CA1 neurons; details: iv, 8 minutes global ischemia, treatment from 30 minutes after reflow, CA1 neurons on day 8
Protocol: (§1) Dogs - Dogs are subjected to 8 minutes global ischemia (clamping the ascending aorta) and are treated iv with drug at 30 minutes after reflow. Treatment is given 6 hours later, b.i.d. for 2 more days and s.i.d. for 4 additional days. On day 8 the brains are removed and again drug protection of the vulnerable CA1 neurons is assessed. The Toxic doses are determined by administering the drug iv to conscious dogs in incremental doses and observing for side effects (we use preictal behaviour or convulsions as an endpoint).

Mice [3] = test: Antihypoxia studies (time to mortality in a hypoxic environment); assay type: in vivo; details: Mus musculus, oral, dose that produces a 50% increase in the time to mortality in an hypoxic environment
Protocol: Antihypoxia activity, that is, they extension of the lifetime of animals exposed to a hypoxic environment, may be conveniently measured in mice. Groups of mice are tested at various times after the intraperitoneal administration of graded doses of the test compound. The animals' survival time in a temperature controlled hypoxic environment (96% nitrogen and 4% oxygen) is recorded. A statistical comparison is made between coincident vehicle treated animals and the experimental group. […] Other modes of administration can also be used.

[4] = Inverted screen test of Coughenour et al. (TD50); details: mouse, in vivo, mice, oral
Mice [5] = test: Protection against NMDLA induced seizures (convulsions); assay type: in vivo; details: Mus musculus, 5 min, ip, evaluated for 5 minutes following iv injection of 150 mg/kg NMDLA
Protocol: NMDA blocking activity may be measured by assessing a compound's ability to protect mice from convulsions induced by intravenous administration of 150 m/k of NMDA according to the procedures of Czuczwar et al., (Neurotransmitters, Seizures and Epilepsy III, edited by G. Nistico et al., Raven Press, New York 1986, pages 235-246). […] […] Animals were kept for 60 min after NMDA dosing and mortality was recorded.

Mice [6] = test: Protection against NMDLA induced mortality; assay type: in vivo; details: Mus musculus, 1 h, ip, evaluated over 60 minutes after NMDLA injection (150 mg/kg iv)
Protocol: NMDA blocking activity may be measured by assessing a compound's ability to protect mice from convulsions induced by intravenous administration of 150 m/k of NMDA according to the procedures of Czuczwar et al., (Neurotransmitters, Seizures and Epilepsy III, edited by G. Nistico et al., Raven Press, New York 1986, pages 235-246). Groups of mice were pretreated by 30 min with the test compound by the oral or intraperitoneal routes and then given NMDA. […] Animals were kept for 60 min after NMDA dosing and mortality was recorded.

[7] = CD50: seizure following ip injection of the compound; details: mouse, in vivo, mice, no inverted screen TD50 performed, CD50 = dose when 50% of mice experience a seizure following ip injection
Rats [8] = test: Neurotoxicity TD50, narrow plank walking test; details: narrow plank test one hour after administration
Protocol: Rats - Rats are subjected to the 4-vessel occlusion model of stroke for 30 minutes followed by drug injection at 30 minutes after blood reflow to the brain. The drugs are administered ip twice daily for one week. At 8 days post stroke the brains are removed and protection is determined by determining viability of the vulnerable CA1 neurons in the hippocampus (neutrons associated with short term memory). […] Rats that fall are scored as failures.

Dogs [9] = details: iv
Protocol: as §1

Dogs [10] = details: conscious dogs, iv incremental doses
Protocol: as §1

Row | Structure (SMILES) | preventing loss of the CA1 neurons (Rats [1]) | dose active in protecting dogs against stroke (Dogs [2]) [mg/kg] | ED50 (Mice [3]) [mg/kg] | TD50 [4] [mg/kg] | ED50 (Mice [5]) [mg/kg] | ED50 (Mice [6]) [mg/kg] | TD50 [7] [mg/kg] | ip doses for TD50s relative to neurotoxicity in the rat (Rats [8]) | dose active in protecting dogs against stroke (Dogs [9]) [mg/kg] | lowest toxic dose for convulsions (Dogs [10]) [mg/kg] | lowest toxic dose for preictal behaviour (Dogs [10]) [mg/kg]
1 | CC(Cc1ccccc1)(NC(=O)CN)c1ccccc1 (stereo not drawn) [Compound A, 2-amino-N-(1,2-diphenyl-1-methylethyl)acetamide] | effective | 7.5 | – | – | – | – | – | – | – | – | –
2 | NCC(=O)NC(Cc1ccccc1)c1ccccc1 (stereo not drawn) [Compound B, 2-amino-N-(1,2-diphenylethyl)acetamide] | effective | – | 19.1 | 236 | 33 | 20.6 | 82.4 | 47 | 5 | 44 | 44
